This passage reports Ki and melting point results from PMC9369419 (International Journal of Molecular Sciences, 2022).

One series has as its target T1, GluK1 (Rattus norvegicus, UniProt P22756).
T1 construct: made in house; host or cells: Sf9 insect cells (membranes)
As to the kind of experiment: Radioligand binding at recombinant homomeric GluK1 in Sf9 membranes. As to conditions: recombinant rat homomeric receptor, [3H]-(S)-NF608, mean ± SEM. The protocol:
(§1) Ligand binding affinities at recombinant rat homomeric GluA2, GluK1−3, and GluK5 were determined as previously detailed. […] The filters were dried at 70 °C for 1 h, and 50 μL/well Microscint 20 (PerkinElmer, Waltham, MA, USA) was added. Radioactivity was detected with a TopCounter (PerkinElmer, Waltham, MA, USA). GluA2 and GluK5 assays were filtered on GF/C type filters using Millipore 12-well filtration manifolds (Merck Life Science, Søborg, Denmark) and washed twice with ice-cold assay buffer. Filters were placed in pony vials (PerkinElmer, Waltham, MA, USA), 3 mL of Ultima Gold scintillation fluid (PerkinElmer, Waltham, MA, USA) was added, and DPM (disintegrations per minute) were determined using a TriCarb 2900 scintillation counter (PerkinElmer, Waltham, MA, USA).
(§2) All competition curves (n ≥ 3 per ligand) were determined in triplicate. Data were analyzed using GraphPad Prism 6 (GraphPad Software, San Diego, CA, USA) to determine ligand affinity (Ki) and Hill coefficient (nH) using the one-site Ki and four-parameter logistics equations, respectively.

The target in a further series is T2, GluK3 (Rattus norvegicus, UniProt P42264).
T2 construct: made in house; host or cells: Sf9 insect cells (membranes)
T2 sequence (P42264 32-919): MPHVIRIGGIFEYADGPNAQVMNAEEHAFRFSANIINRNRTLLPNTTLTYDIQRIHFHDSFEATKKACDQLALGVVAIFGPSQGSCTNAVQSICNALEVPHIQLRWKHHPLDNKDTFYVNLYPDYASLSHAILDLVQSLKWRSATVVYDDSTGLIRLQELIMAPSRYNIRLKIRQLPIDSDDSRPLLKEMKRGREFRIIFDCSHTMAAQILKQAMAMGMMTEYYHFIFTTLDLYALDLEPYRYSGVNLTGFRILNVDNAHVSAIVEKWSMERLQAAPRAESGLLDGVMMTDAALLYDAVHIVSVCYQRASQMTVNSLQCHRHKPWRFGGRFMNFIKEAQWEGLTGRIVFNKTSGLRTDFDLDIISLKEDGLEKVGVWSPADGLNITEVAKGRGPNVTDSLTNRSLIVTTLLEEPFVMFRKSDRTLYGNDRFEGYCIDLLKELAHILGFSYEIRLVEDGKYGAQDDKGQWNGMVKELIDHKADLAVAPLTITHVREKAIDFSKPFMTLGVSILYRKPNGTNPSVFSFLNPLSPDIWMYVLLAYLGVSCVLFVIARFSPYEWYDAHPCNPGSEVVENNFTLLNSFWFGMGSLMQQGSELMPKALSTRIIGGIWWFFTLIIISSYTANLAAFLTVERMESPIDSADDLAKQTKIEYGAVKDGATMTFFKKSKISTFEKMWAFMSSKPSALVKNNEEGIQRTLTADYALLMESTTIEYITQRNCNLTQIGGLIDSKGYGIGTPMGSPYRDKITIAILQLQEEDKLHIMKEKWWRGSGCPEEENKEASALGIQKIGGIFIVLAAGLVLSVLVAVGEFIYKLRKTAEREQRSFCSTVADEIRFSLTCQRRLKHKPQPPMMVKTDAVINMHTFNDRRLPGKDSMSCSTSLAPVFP
As to the kind of experiment: Radioligand binding at recombinant homomeric GluK3 in Sf9 membranes. As to conditions: recombinant rat homomeric receptor, [3H]-kainic acid, mean ± SEM. As for the experimental part: as §1, §2

For a further series, the target named is T3, GluA2 (Rattus norvegicus, UniProt P19491).
T3 construct: made in house; host or cells: Sf9 insect cells (membranes)
T3 sequence (P19491 22-883): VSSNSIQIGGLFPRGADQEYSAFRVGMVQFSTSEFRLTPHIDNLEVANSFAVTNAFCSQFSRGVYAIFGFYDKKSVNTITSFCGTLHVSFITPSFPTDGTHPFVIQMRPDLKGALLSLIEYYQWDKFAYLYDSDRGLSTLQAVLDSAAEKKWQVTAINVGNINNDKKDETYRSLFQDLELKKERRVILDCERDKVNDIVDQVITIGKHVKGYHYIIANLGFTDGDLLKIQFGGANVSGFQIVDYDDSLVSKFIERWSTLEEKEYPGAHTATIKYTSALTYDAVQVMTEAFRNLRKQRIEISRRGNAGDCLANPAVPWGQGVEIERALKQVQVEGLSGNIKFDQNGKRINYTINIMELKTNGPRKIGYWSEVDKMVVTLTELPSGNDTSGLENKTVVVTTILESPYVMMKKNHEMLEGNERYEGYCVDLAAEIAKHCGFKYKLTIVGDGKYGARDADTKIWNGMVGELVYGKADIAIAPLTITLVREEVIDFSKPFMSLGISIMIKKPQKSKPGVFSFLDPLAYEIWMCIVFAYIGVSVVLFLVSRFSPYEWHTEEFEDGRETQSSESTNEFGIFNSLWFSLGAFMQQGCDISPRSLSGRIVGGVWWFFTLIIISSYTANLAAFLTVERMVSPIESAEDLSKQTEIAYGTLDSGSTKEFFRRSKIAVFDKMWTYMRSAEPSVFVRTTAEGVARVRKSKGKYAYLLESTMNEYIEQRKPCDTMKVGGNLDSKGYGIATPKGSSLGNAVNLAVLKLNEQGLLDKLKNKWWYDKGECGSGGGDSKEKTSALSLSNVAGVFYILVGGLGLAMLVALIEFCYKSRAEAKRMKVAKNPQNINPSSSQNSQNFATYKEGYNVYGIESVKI
Put plainly: Radioligand binding at recombinant homomeric GluA2 in Sf9 membranes. As to conditions: recombinant rat homomeric receptor, [3H]-(RS)-AMPA, mean ± SEM. As for the experimental part: as §1, §2

The target of another series is T4, GluK2 (Rattus norvegicus, UniProt P42260).
T4 construct: made in house; host or cells: Sf9 insect cells (membranes)
T4 sequence (P42260 32-908): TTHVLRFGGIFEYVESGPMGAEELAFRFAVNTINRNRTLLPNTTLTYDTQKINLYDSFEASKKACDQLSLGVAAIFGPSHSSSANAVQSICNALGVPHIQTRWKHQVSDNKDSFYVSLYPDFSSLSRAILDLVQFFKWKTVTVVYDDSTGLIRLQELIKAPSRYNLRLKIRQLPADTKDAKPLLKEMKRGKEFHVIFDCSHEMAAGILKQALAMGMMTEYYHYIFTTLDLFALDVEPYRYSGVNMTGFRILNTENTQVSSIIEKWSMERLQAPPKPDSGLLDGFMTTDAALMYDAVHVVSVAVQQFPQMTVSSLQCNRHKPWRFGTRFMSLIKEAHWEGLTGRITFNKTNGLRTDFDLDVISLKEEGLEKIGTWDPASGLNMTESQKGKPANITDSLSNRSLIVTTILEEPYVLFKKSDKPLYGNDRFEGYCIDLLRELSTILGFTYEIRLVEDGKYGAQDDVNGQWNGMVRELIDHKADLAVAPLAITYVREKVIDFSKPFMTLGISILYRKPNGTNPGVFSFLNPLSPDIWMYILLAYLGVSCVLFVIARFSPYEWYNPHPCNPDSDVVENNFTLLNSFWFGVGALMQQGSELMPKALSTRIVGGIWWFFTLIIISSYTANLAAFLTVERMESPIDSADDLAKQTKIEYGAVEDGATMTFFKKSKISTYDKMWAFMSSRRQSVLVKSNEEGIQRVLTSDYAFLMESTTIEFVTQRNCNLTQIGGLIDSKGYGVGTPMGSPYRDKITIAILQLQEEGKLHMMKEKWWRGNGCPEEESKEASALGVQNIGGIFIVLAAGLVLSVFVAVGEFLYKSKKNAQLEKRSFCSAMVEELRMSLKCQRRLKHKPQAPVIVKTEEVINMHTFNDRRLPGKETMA
As to the kind of experiment: Radioligand binding at recombinant homomeric GluK2 in Sf9 membranes. To be noted: recombinant rat homomeric receptor, [3H]-kainic acid, mean ± SEM. As for the experimental part:
as §1, §2

For a further series, the target named is T5, GluK5 (Rattus norvegicus, UniProt Q63273).
T5 construct: made in house; host or cells: Sf9 insect cells (membranes)
T5 sequence (Q63273 15-979): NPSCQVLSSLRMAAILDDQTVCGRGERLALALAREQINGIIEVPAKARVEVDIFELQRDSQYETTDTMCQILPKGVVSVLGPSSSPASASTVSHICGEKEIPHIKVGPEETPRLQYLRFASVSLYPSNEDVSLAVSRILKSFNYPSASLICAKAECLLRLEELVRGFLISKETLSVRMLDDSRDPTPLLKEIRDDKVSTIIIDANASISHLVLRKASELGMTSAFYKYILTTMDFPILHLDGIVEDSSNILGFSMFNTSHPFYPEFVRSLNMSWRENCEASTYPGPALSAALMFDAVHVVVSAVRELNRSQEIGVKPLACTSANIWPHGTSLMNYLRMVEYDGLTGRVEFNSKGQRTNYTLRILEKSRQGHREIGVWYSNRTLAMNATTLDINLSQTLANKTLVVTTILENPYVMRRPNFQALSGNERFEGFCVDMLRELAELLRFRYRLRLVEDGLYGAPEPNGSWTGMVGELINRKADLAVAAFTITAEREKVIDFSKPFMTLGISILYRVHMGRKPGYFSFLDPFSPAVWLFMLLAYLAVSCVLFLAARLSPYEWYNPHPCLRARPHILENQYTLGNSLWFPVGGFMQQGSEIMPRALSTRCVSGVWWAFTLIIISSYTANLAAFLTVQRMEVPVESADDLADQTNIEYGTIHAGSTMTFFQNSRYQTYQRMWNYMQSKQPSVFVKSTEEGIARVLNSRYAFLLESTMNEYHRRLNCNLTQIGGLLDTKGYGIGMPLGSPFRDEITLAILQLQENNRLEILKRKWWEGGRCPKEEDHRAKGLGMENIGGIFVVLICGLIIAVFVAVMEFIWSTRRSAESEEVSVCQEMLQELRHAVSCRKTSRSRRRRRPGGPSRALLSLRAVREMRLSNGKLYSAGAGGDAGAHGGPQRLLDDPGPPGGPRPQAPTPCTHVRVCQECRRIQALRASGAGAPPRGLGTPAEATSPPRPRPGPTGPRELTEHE
As to the kind of experiment: Radioligand binding at recombinant homomeric GluK5 in Sf9 membranes. As to conditions: recombinant rat homomeric receptor, [3H]-kainic acid, mean ± SEM. As for the experimental part:
as §1, §2

Bounds are passed on as bounds.

T1 sequence (P22756 31-949): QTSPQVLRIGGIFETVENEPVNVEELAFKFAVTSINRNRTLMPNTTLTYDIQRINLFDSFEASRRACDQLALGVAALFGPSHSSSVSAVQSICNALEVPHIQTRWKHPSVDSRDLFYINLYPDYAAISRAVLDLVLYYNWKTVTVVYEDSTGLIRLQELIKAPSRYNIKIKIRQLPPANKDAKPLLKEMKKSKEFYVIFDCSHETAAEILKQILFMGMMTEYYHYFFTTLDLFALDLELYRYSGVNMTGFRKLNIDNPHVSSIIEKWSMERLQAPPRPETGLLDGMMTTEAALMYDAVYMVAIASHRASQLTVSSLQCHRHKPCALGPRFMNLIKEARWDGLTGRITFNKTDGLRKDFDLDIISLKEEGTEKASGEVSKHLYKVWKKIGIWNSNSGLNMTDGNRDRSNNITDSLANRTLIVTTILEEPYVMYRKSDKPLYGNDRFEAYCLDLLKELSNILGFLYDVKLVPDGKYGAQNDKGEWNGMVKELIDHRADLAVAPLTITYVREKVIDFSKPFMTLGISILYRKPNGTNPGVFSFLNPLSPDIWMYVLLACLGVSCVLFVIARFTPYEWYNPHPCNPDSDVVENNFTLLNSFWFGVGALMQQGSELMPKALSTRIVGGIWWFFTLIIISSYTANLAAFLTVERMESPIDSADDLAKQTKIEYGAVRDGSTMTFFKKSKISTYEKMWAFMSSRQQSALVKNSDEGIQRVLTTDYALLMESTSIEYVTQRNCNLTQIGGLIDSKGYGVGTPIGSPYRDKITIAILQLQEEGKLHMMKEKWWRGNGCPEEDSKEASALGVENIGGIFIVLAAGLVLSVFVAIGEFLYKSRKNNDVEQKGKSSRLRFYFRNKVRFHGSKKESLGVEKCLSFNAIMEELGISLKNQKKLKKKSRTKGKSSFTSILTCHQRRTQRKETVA

As usually defined, the Ki is the equilibrium dissociation constant of an inhibitor or competing ligand from its target. As usually defined, the melting point is the temperature of the solid-liquid transition. For the compound `O=C(Nn1c(=O)c(=O)[nH]c2cc(C#Cc3ccc(CO)cc3)ccc21)c1ccccc1` [Compound 20], the melting point was 298 to 300 °C. Further, the Ki at GluK1 is about 100 µM. Also, the Ki at GluK3 was found to be 5.8 ± 1.5 µM. The inhibition constant Ki at GluA2 is over 100 µM. Besides, the inhibitory constant (Ki) on GluK2 is over 100 µM. For the same compound, the Ki on GluK5 was over 100 µM.

`CN(C)c1ccc(C#Cc2ccc3c(c2)[nH]c(=O)c(=O)n3NC(=O)c2ccccc2)cc1` [Compound 24] returned a melting point of 273 to 275 °C. On GluK1, the Ki was 39 ± 4 µM. Besides, the Ki at GluK3 was 24 ± 4 µM.

Regarding `CC(C)c1ccc(C#Cc2ccc3c(c2)[nH]c(=O)c(=O)n3NC(=O)c2ccccc2)cc1` [Compound 9], the melting point was 263 to 264 °C. The Ki at GluK1 was over 100 µM. Moreover, the Ki on GluK3 amounted to 38 ± 10 µM. On GluA2, the Ki was over 100 µM. At GluK2, the inhibition constant Ki was over 100 µM. The Ki at GluK5 is over 100 µM.

Regarding `O=C(Nn1c(=O)c(=O)[nH]c2cc(C#Cc3cccc(O)c3)ccc21)c1ccccc1` [Compound 19], the melting point is 313 to 314 °C. Moreover, the Ki at GluK1 is over 100 µM. For the same compound, on GluK3, the Ki is 3.2 ± 0.6 µM. Besides, the Ki on GluA2 is about 100 µM. Also, the Ki at GluK2 is over 100 µM. The inhibition constant (Ki) on GluK5 was over 100 µM.

In the case of `O=C(Nn1c(=O)c(=O)[nH]c2cc(C#Cc3ccc(Cl)cc3)ccc21)c1ccccc1` [Compound 10], the melting point was in the range of 326 to 327 °C. At GluK1, the Ki is over 100 µM. In addition, at GluK3, the Ki came to 3.5 ± 0.7 µM. Moreover, at GluA2, the Ki is over 100 µM. Also, the Ki at GluK2 is over 100 µM. Also, on GluK5, the Ki was over 100 µM.

The compound `O=C(O)c1cccc(C#Cc2ccc3c(c2)[nH]c(=O)c(=O)n3NC(=O)c2ccccc2)c1` [Compound 14] yielded a melting point of 310 to 312 °C. Also, on GluK1, the Ki was over 100 µM. For the same compound, the Ki on GluK3 stood at 28 ± 2 µM. On GluA2, the Ki was over 100 µM. Moreover, at GluK2, the Ki was over 100 µM. The Ki on GluK5 was over 100 µM.

`Nc1cccc(C#Cc2ccc3c(c2)[nH]c(=O)c(=O)n3NC(=O)c2ccccc2)c1` [Compound 22] showed a melting point of 274 to 275 °C. Besides, at GluK1, the Ki was over 100 µM. Moreover, at GluK3, the inhibition constant (Ki) is about 100 µM.

Regarding `COc1ccc(C#Cc2ccc3c(c2)[nH]c(=O)c(=O)n3NC(=O)c2ccccc2)cc1` [Compound 12], the melting point lay in the range of 304 to 305 °C. For the same compound, the Ki on GluK1 is over 100 µM. Moreover, on GluK3, the inhibitory constant (Ki) was found to be 8.3 ± 0.4 µM. Besides, at GluA2, the Ki was over 100 µM. At GluK2, the Ki was over 100 µM. Moreover, the Ki at GluK5 was over 100 µM.

The compound `Cc1cccc(C#Cc2ccc3c(c2)[nH]c(=O)c(=O)n3NC(=O)c2ccccc2)c1` [Compound 5] came in with a melting point of 318 to 320 °C. Further, the Ki on GluK1 was about 100 µM. Further, the Ki on GluK3 is 1.4 ± 0.4 µM. Besides, the Ki at GluA2 is over 100 µM. Also, at GluK2, the Ki is about 100 µM. The Ki at GluK5 is over 100 µM.

For `NS(=O)(=O)c1ccc(C#Cc2ccc3c(c2)[nH]c(=O)c(=O)n3NC(=O)c2ccccc2)cc1` [Compound 16], the melting point lay within 303 to 305 °C. Moreover, at GluK1, the Ki was over 100 µM. Besides, the inhibition constant (Ki) on GluK3 is about 100 µM. For the same compound, on GluA2, the Ki is over 100 µM. Also, the Ki on GluK2 is over 100 µM. For the same compound, the Ki on GluK5 was over 100 µM.

Compound `O=C(Nn1c(=O)c(=O)[nH]c2cc(C#Cc3ccc(Oc4ccccc4)cc3)ccc21)c1ccccc1` [Compound 13] had a melting point of 262 to 263 °C. The Ki at GluK1 was at least 100 µM. On GluK3, the inhibition constant (Ki) turned out to be 7.9 ± 0.7 µM.

On to `O=C(Nn1c(=O)c(=O)[nH]c2cc(-c3cc4ccccc4o3)ccc21)c1ccccc1` [Compound 18], for which the results for the inhibitory constant (Ki) on GluK1 and at GluK3 were over 100 µM and 14 ± 2 µM, respectively.

Regarding `O=C(Nn1c(=O)c(=O)[nH]c2cc(C#Cc3ccc(C(F)(F)F)cc3)ccc21)c1ccccc1` [Compound 11], the Ki at GluK1 was about 100 µM; on GluK3, over 100 µM; on GluA2, over 100 µM; at GluK2, over 100 µM; at GluK5 it was over 100 µM.

Regarding `O=C(O)c1ccc(C#Cc2ccc3c(c2)[nH]c(=O)c(=O)n3NC(=O)c2ccccc2)cc1` [Compound 15], the melting point is 348 to 349 °C. The Ki on GluK1 is over 100 µM. Moreover, on GluK3, the Ki came out at 31 ± 4 µM. Moreover, the Ki on GluA2 was over 100 µM. Moreover, the Ki on GluK2 is over 100 µM. In addition, at GluK5, the Ki is over 100 µM.

On to `Nc1ccccc1C#Cc1ccc2c(c1)[nH]c(=O)c(=O)n2NC(=O)c1ccccc1` [Compound 21], for which the melting point was 303 to 305 °C. For the same compound, at GluK1, the Ki was determined as 14 ± 2 µM. Further, the inhibition constant Ki on GluK3 was 1 ± 0.1 µM.

`O=C(Nn1c(=O)c(=O)[nH]c2cc(C#Cc3ccncc3)ccc21)c1ccccc1` [Compound 25] displayed a melting point of 239 to 241 °C. In addition, the Ki on GluK1 is over 100 µM. In addition, the Ki at GluK3 amounted to 25 ± 6 µM. Further, the Ki on GluA2 was over 100 µM. Also, the inhibitory constant (Ki) on GluK2 was over 100 µM. Further, the Ki on GluK5 is over 100 µM.

`Cc1ccc(C#Cc2ccc3c(c2)[nH]c(=O)c(=O)n3NC(=O)c2ccccc2)cc1` [Compound 6]: the melting point fell in the range of 325 to 327 °C. Moreover, the Ki on GluK1 was at least 100 µM. Besides, the Ki at GluK3 was 6.1 ± 0.8 µM.

`Nc1ccc(C#Cc2ccc3c(c2)[nH]c(=O)c(=O)n3NC(=O)c2ccccc2)cc1` [Compound 23] yielded a melting point of 312 to 314 °C. Besides, the Ki at GluK1 is over 100 µM. The Ki at GluK3 was found to be 1.4 ± 0.2 µM. Moreover, the Ki on GluA2 is over 100 µM. The inhibitory constant (Ki) at GluK2 was over 100 µM. Also, the inhibition constant (Ki) on GluK5 was over 100 µM.

Turning to `NS(=O)(=O)c1cccc2c1c([N+](=O)[O-])cc1nc(O)c(O)nc12` [NBQX, reference compound], the inhibitory constant (Ki) on GluK2 came out at 5.4 ± 1.2 µM; at GluK5, 152 ± 23 µM.

With `CCc1ccc(C#Cc2ccc3c(c2)[nH]c(=O)c(=O)n3NC(=O)c2ccccc2)cc1` [Compound 7], the melting point is 308 to 310 °C. The Ki at GluK1 was over 100 µM. Also, at GluK3, the Ki was determined as 20 ± 1 µM. In addition, the Ki on GluA2 is over 100 µM. Moreover, on GluK2, the Ki was over 100 µM. For the same compound, the inhibitory constant (Ki) at GluK5 was over 100 µM.

For `CCCc1ccc(C#Cc2ccc3c(c2)[nH]c(=O)c(=O)n3NC(=O)c2ccccc2)cc1` [Compound 8], the melting point lay in the range of 305 to 306 °C. Moreover, at GluK1, the Ki was over 100 µM. In addition, the inhibition constant Ki on GluK3 is 50 ± 12 µM. In addition, the Ki on GluA2 is over 100 µM. Further, the inhibition constant Ki on GluK2 is over 100 µM. Besides, at GluK5, the Ki was over 100 µM.
